# Experimental data reported in patent US9029337B2, “Modulation of factor 7 expression” (Isis Pharmaceuticals, Inc., priority 2007, dated 2015).
# Strand notation (5' to 3'): a small letter for the sugar, then the base; units joined by * are phosphorothioate-linked, units joined directly phosphodiester-linked; [ ] holds rarer units or linkages, { } end groups; capitals alone tell only the bases. e = 2'-O-(2-methoxyethyl) (MOE); [5mC] = 5-methylcytosine; d = 2'-deoxy (DNA)
# Tested on: human Factor 7 mRNA
# Assay: Antisense inhibition of human Factor 7 mRNA in HepB3 cells, 50 nM antisense oligonucleotide, lipofectin
# Format: cell-based
# Conditions: Table 1, 50 nM, lipofectin, approximately 24 hours, relative to untreated control cells
# Outline: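 Seeding density was 4,000 cells per well. Following roughly 24 hours of oligonucleotide treatment, RNA was extracted and Factor 7 message quantified using the RTS 2927 primer probe set. Levels were corrected for RIBOGREEN® total RNA and expressed against untreated controls.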
row,Substance,% Inhibition [%]
1,407919 (antisense eT*e[5mC]*eG*eA*eT*dG*dT*dA*d[5mC]*dT*dG*dG*dG*dA*dG*eA*e[5mC]*e[5mC]*e[5mC]*eT) [compound 407919],84
2,407632 (antisense eT*e[5mC]*e[5mC]*eG*eT*dT*d[5mC]*dG*dG*dG*d[5mC]*dA*dG*dG*d[5mC]*eA*eG*eA*eG*eG) [compound 407632],46
3,407654 (antisense e[5mC]*e[5mC]*eA*e[5mC]*eT*dG*d[5mC]*dA*dG*d[5mC]*d[5mC]*dA*dG*dG*dG*e[5mC]*e[5mC]*eT*eG*eG) [compound 407654],34
4,407955 (antisense eT*eG*eT*eG*eA*dA*dA*dT*dA*dT*d[5mC]*dA*dT*dT*dG*eA*e[5mC]*eA*eA*eG) [compound 407955],3
5,407906 (antisense eA*e[5mC]*e[5mC]*eA*e[5mC]*dG*dG*dG*d[5mC]*dT*dG*dG*dT*dG*d[5mC]*eA*eG*eG*e[5mC]*eG) [compound 407906],4
6,407945 (antisense eA*eA*eT*e[5mC]*eA*dT*dG*dG*dG*d[5mC]*dA*dA*d[5mC]*d[5mC]*d[5mC]*eA*eG*eT*eG*eG) [compound 407945],56
7,407898 (antisense e[5mC]*e[5mC]*eA*eG*e[5mC]*dA*dG*dA*dG*dA*dG*dT*dA*d[5mC]*d[5mC]*e[5mC]*e[5mC]*eT*e[5mC]*eG) [compound 407898],49
8,407669 (antisense eT*eA*eG*eA*e[5mC]*d[5mC]*d[5mC]*dT*d[5mC]*dA*dG*dT*dG*dA*dG*eT*eG*eT*e[5mC]*eG) [compound 407669],57
9,407619 (antisense eA*eG*eA*eA*eT*dA*dG*dG*dT*dA*dT*dT*dT*dT*dT*e[5mC]*e[5mC]*eA*e[5mC]*eA) [compound 407619],64
10,407613 (antisense eT*eG*e[5mC]*eT*e[5mC]*dA*d[5mC]*dA*dG*d[5mC]*d[5mC]*dG*d[5mC]*d[5mC]*dG*eT*eT*e[5mC]*eT*e[5mC]) [compound 407613],66
11,407928 (antisense e[5mC]*eT*eT*eG*eG*d[5mC]*dT*dG*dA*dA*dG*dG*dG*dA*dG*eG*eT*eA*eA*eG) [compound 407928],55
12,407959 (antisense eG*e[5mC]*eA*eG*eG*dG*dA*dT*dG*dG*d[5mC]*dA*dT*d[5mC]*dG*eA*eG*eT*e[5mC]*e[5mC]) [compound 407959],0
13,407600 (antisense eT*eG*eA*eA*eG*d[5mC]*d[5mC]*d[5mC]*dA*dA*dG*d[5mC]*dA*dG*dA*eA*eG*eG*e[5mC]*eA) [compound 407600],61
14,407624 (antisense eG*eA*eG*eA*e[5mC]*d[5mC]*dA*d[5mC]*d[5mC]*d[5mC]*dA*dG*dA*dT*dG*eG*eT*eG*eT*eT) [compound 407624],73
15,407938 (antisense e[5mC]*eA*e[5mC]*e[5mC]*e[5mC]*dA*dG*d[5mC]*dG*dA*dA*dG*dG*dG*dA*eG*eA*eA*eA*eT) [compound 407938],60
16,407888 (antisense e[5mC]*eG*eA*eA*eG*dA*d[5mC]*dT*dG*d[5mC]*dA*dG*d[5mC]*d[5mC]*dA*eG*eG*e[5mC]*eA*eG) [compound 407888],34
17,407890 (antisense e[5mC]*eA*eG*eG*eG*dA*dG*d[5mC]*d[5mC]*d[5mC]*dG*dG*d[5mC]*d[5mC]*dG*e[5mC]*eA*eG*e[5mC]*eT) [compound 407890],60

# Same assay, conditions: Table 6, 50 nM, lipofectin, approximately 24 hours
row,Substance,% Inhibition [%]
1,422199 (antisense eG*eG*eT*dT*dA*d[5mC]*dT*dG*dA*dG*d[5mC]*dG*d[5mC]*dG*dG*dA*dA*eG*eA*eA) [compound 422199],65
2,422195 (antisense eA*e[5mC]*eT*dG*dA*dG*d[5mC]*dG*d[5mC]*dG*dG*dA*dA*dG*dA*dA*dG*eG*eG*eA) [compound 422195],37
3,422198 (antisense eG*eT*eT*dA*d[5mC]*dT*dG*dA*dG*d[5mC]*dG*d[5mC]*dG*dG*dA*dA*dG*eA*eA*eG) [compound 422198],50
4,422266 (antisense e[5mC]*eG*d[5mC]*dG*dG*dA*dA*dG*dA*dA*dG*dG*dG*dA*d[5mC]*eG*eG*eA*eA*eG) [compound 422266],13
5,422127 (antisense eT*eA*e[5mC]*eT*eG*dA*dG*d[5mC]*dG*d[5mC]*dG*dG*dA*dA*dG*eA*eA*eG*eG*eG) [compound 422127],17
6,422263 (antisense eG*eG*dA*dA*dG*dA*dA*dG*dG*dG*dA*d[5mC]*dG*dG*dA*eA*eG*eG*eT*eG) [compound 422263],19
7,422272 (antisense eA*e[5mC]*dT*dG*dA*dG*d[5mC]*dG*d[5mC]*dG*dG*dA*dA*dG*dA*eA*eG*eG*eG*eA) [compound 422272],12

# Same assay, conditions: gapmers targeted to nucleobases 4868 to 4899 of SEQ ID NO: 1, Table 8
row,Substance,% Inhibition of human Factor 7 mRNA levels [%]
1,422146 (antisense eA*eG*e[5mC]*e[5mC]*e[5mC]*dG*dA*dG*dT*dT*d[5mC]*dT*dG*d[5mC]*dA*eG*eG*eA*eG*e[5mC]) [compound 422146],58
2,422213 (antisense eT*e[5mC]*eT*dG*d[5mC]*dA*dG*dG*dA*dG*d[5mC]*dG*dG*d[5mC]*d[5mC]*dT*dA*eA*eA*eT) [compound 422213],67

# Same assay, conditions: lipofectin, 50 nM antisense oligonucleotide, approximately 24 hours, Factor 7 mRNA by real-time RT-PCR (RTS 2927), relative to untreated control
row,Substance,% Inhibition [%]
1,416536 (antisense e[5mC]*eG*eG*eG*eA*dA*dG*dG*d[5mC]*d[5mC]*dT*dG*d[5mC]*d[5mC]*d[5mC]*eT*eG*e[5mC]*eA*eG) [compound 416536],23
2,416558 (antisense eT*eG*eA*e[5mC]*eA*dG*d[5mC]*dA*d[5mC]*dG*dA*dA*dG*d[5mC]*d[5mC]*e[5mC]*eA*eG*eA*eG) [compound 416558],19
3,416425 (antisense eA*eA*eG*e[5mC]*eA*dG*dA*dA*dG*dG*d[5mC]*dA*dG*dA*dG*eG*eA*eG*e[5mC]*e[5mC]) [compound 416425],13
4,416485 (antisense eG*eA*eG*e[5mC]*eT*dA*d[5mC]*dA*dG*d[5mC]*d[5mC]*dT*d[5mC]*dA*dA*eA*e[5mC]*eA*eT*e[5mC]) [compound 416485],7
5,416563 (antisense eG*e[5mC]*e[5mC]*eT*eG*d[5mC]*dA*dT*dT*dT*d[5mC]*d[5mC]*d[5mC]*dA*dT*eT*eG*eG*e[5mC]*eA) [compound 416563],0
6,416448 (antisense eT*eT*eT*eT*eT*d[5mC]*d[5mC]*dA*d[5mC]*dA*dT*dG*dG*dA*dT*eA*eT*eT*e[5mC]*eA) [compound 416448],34
7,416480 (antisense eA*eA*eG*eT*eG*dA*dG*dA*dG*d[5mC]*dT*dA*dA*dA*d[5mC]*eA*eA*e[5mC]*e[5mC]*eG) [compound 416480],25
8,416550 (antisense eT*eG*eG*e[5mC]*eT*dG*dG*d[5mC]*dT*dG*dA*dG*dG*dA*dG*eA*e[5mC]*eA*eA*eT) [compound 416550],55
9,416538 (antisense e[5mC]*eG*eT*eG*eG*dA*d[5mC]*dT*dG*dA*dT*d[5mC]*d[5mC]*dA*dA*eA*eG*eG*eA*e[5mC]) [compound 416538],46
10,416567 (antisense eT*eG*eG*eT*eG*dG*d[5mC]*dA*d[5mC]*d[5mC]*dA*dG*dA*dT*dG*eT*e[5mC]*eT*eG*eA) [compound 416567],2

# Same assay, conditions: oligonucleotides targeted to nucleobases 11830 to 11869 of SEQ ID NO: 1 (Table 9)
row,Substance,% Inhibition (human Factor 7 mRNA levels) [%]
1,422101 (antisense eT*eG*eA*eG*eG*dA*dG*dA*d[5mC]*dA*dA*dT*dG*dG*dT*e[5mC]*eA*eG*eG*eG) [compound 422101],42
2,422237 (antisense e[5mC]*eA*dA*dT*dG*dG*dT*d[5mC]*dA*dG*dG*dG*d[5mC]*dT*dG*eG*eT*eT*eT*eT) [compound 422237],50
3,422171 (antisense eG*eG*e[5mC]*dT*dG*dA*dG*dG*dA*dG*dA*d[5mC]*dA*dA*dT*dG*dG*eT*e[5mC]*eA) [compound 422171],61
4,422090 (antisense eG*eG*eT*e[5mC]*eA*dG*dG*dG*d[5mC]*dT*dG*dG*dT*dT*dT*eT*eG*eG*eA*eG) [compound 422090],42
5,422167 (antisense eG*eA*eG*dG*dA*dG*dA*d[5mC]*dA*dA*dT*dG*dG*dT*d[5mC]*dA*dG*eG*eG*e[5mC]) [compound 422167],53

# Same assay, conditions: oligonucleotides targeted to nucleobases 13760 to 13789 of SEQ ID NO: 1 (Table 10)
row,Substance,% Inhibition (human Factor 7 mRNA levels) [%]
1,422178 (antisense eA*e[5mC]*e[5mC]*d[5mC]*dG*d[5mC]*d[5mC]*dG*dG*d[5mC]*dT*d[5mC]*dT*dG*d[5mC]*dT*d[5mC]*eA*eT*e[5mC]) [compound 422178],37
2,422184 (antisense eT*eG*e[5mC]*dG*d[5mC]*d[5mC]*dA*d[5mC]*d[5mC]*d[5mC]*dG*d[5mC]*d[5mC]*dG*dG*d[5mC]*dT*e[5mC]*eT*eG) [compound 422184],55
3,422175 (antisense e[5mC]*eG*e[5mC]*d[5mC]*dG*dG*d[5mC]*dT*d[5mC]*dT*dG*d[5mC]*dT*d[5mC]*dA*dT*d[5mC]*e[5mC]*e[5mC]*e[5mC]) [compound 422175],69
4,422255 (antisense eA*e[5mC]*d[5mC]*d[5mC]*dG*d[5mC]*d[5mC]*dG*dG*d[5mC]*dT*d[5mC]*dT*dG*d[5mC]*eT*e[5mC]*eA*eT*e[5mC]) [compound 422255],30

# Same assay, conditions: oligonucleotides targeted to nucleobases 14707 to 14732 of SEQ ID NO: 1 (Table 11)
row,Substance,% Inhibition (human Factor 7 mRNA levels) [%]
1,422282 (antisense eA*eG*d[5mC]*dA*dG*d[5mC]*d[5mC]*dT*dG*dA*dG*dG*d[5mC]*d[5mC]*dA*eG*e[5mC]*eA*eG*eA) [compound 422282],48
